Where two headings read alike, the source gives them in different places. Where only a bound is given, the exact number is not on record here.

This assay concerns the target T1, NKCC1 (Homo sapiens, UniProt P55011).
T1 construct: endogenous in cells; host or cells: native HEK293 cells
T1 sequence (P55011 1-1212): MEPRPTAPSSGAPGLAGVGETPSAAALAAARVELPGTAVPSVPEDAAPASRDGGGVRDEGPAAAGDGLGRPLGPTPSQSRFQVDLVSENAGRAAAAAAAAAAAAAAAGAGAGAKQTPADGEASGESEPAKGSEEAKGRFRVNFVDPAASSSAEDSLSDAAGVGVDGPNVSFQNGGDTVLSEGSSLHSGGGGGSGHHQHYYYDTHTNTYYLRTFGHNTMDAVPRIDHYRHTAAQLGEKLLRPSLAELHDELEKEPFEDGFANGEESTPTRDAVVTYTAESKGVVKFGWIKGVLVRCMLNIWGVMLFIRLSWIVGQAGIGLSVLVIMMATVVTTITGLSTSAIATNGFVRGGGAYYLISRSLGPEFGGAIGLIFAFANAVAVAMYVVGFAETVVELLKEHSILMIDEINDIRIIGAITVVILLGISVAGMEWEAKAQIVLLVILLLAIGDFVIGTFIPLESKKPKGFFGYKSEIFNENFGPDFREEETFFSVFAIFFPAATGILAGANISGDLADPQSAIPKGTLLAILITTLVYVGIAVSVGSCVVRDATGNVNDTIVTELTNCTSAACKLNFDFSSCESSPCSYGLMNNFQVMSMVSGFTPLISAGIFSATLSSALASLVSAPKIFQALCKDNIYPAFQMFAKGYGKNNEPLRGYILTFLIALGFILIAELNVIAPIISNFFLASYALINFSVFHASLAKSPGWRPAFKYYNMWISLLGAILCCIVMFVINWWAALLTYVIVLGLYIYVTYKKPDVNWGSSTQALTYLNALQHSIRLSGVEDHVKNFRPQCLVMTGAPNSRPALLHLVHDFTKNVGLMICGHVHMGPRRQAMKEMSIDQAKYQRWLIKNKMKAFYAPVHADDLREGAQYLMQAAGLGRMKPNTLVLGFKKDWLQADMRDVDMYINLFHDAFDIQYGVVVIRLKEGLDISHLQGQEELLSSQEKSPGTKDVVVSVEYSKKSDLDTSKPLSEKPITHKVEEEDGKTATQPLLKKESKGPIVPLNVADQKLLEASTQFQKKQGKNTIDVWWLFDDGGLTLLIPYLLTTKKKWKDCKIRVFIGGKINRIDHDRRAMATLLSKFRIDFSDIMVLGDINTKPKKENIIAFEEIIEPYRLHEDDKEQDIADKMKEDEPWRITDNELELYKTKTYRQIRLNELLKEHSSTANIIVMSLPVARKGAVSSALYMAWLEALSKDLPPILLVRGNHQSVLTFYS
Kind of assay: NKCC1-mediated K+ influx (83Rb tracer uptake) in native HEK293 cells, hypertonic saline, 100 μM ouabain. The class given is cell-based. The source says: The compounds of the invention have been tested for evaluating their potency in inhibiting the NKCC1 channel. The test used is a cellular assay expressing the NKCC1 channel: HEK293 cells are human cells derived from embryonic kidney. The inhibitory activity of the compounds has been evaluated in measuring the modification of the potassium flux at 2 concentrations, as described hereafter in the biological protocol.
HEK293 cells are human cells derived from embryonic kidney. They express at their plasma membranes proteins that transport potassium (K^+). Among these proteins is the Na—K-2Cl cotransporter or NKCC1. This transporter contributes to 40-50% of K^+ influx into the cells. The remaining of K^+ transport is mediated by the Na^+/K^+-ATPase (also known as Na^+ pump or Na^+/K^+ pump), which also contributes some 40-50% of the influx basal flux of 5-10%, which is mainly due to K^+ channels (FIG. 1A). Thus, the HEK293 cell in culture is an ideal model to study the function of NKCC1 and test compounds that inhibits its transport.
The assay to measure NKCC1 function was optimized to obtain the next signal to noise ratio: • a. A slightly hypertonic saline was used to stimulate NKCC1 function. […] By consistent use of this simple manipulation, the NKCC1 signal was enhanced. • b. Ouabain, an inhibitor of the Na^+/K^+ pump, was used at 100 μM. […] A radioactive isotope was used to trace the inward movement of K^+ into the cell (influx). This allowed for highly precise measurements of K^+ influx. Because radioactive isotopes of K^+ had very short half-lives, radioactive isotopes of Rb^+ were used. Rubidium was a monovalent cation which was readily transporter at the K^+ binding site by many transporters and channels. Rb^+ was a congener of K^+, being transported undistinguishably from K^+. ^83Rb (half-life of 83 days) was used since ^86Rb (half-life of 19.6 days) is no longer commercially available. The ^83Rb isotope was used as a tracer, i.e. at a very low amounts to trace the movement of K^+.
K^+ influx measured in native HEK293 was in the range of 7000-9000 pmoles K^+ per mg protein per min. In the presence of 20 μM Ref 1, the flux was reduced to 600-900 pmoles K^+ per mg protein per min. Thus, there was a very solid dynamic range. In each experiment, the flux without Ref 1 was set at 1000 (equivalent to 100.0%) and the flux with 20 μM bumetanide was set at 0 (equivalent to 0%).
For the flux experiments, 35-mm culture dishes were coated with 0.1 mg/mL poly-L-lysine and placed in large 20×20 [square] dishes. For convenience, the poly-L-lysine was placed in the dishes the day before the experiment. Before plating the cells, the poly-L-lysine was aspirated, and each dish washed twice with 1 mL sterile water. Cells from 3 confluent 10-cm dishes were detached with trypsin and resuspended into 49 mL complete medium. Cells (2 mL/35-mm dish) were plated in 24 dishes and allowed to attach for at least 2 hours prior to the flux. This setup allowed the measurement of 8 conditions in triplicates. For the flux, culture medium was aspirated and replaced with 1 mL saline for a preincubation period of 15 min. The saline was aspirated and replaced with 1 mL identical saline containing 0.25 μCi/mL 83Rb for 15 min. Following the uptake period, the radioactive solution was aspirated, and the cells washed 3 times with ice-cold saline. Cells were then lyzed with 500 μl 0.25N NaOH for 1 hour, neutralized with 250 μL glacial acetic acid and 300 μL and 30 μL aliquots were used for μ-scintillation counting and protein assays, respectively. Two 5 μL of each flux solution was used to determine cpm and relate those cpm to nmoles K^+. Potassium influx was expressed in nmoles K^+ per mg protein per min. Note that within an experiment, groups of 3 dishes were separated 2 min apart for easy handling. Also note that since all dishes were plated with a homogeneous cell suspension, and all dishes were identical, the protein content was measured from a subset of dishes. […]

Where [1] appears, read: HEK293, no drug = 1000, 20 μM bumetanide = 0, read-out: NKCC1 mediated flux inhibition at 2 μM (%).
Where [2] appears, read: HEK293, no drug = 1000, 20 μM bumetanide = 0, read-out: NKCC1 mediated flux inhibition at 20 μM (%).

By inhibition is commonly meant the drop in the measured response relative to a control, in per cent. With `CCCCNc1cc(C(=O)O)cc(S(=N)(=O)N2CCC(c3ccccc3)CC2)c1Oc1ccccc1` (stereo not shown) [Compound 66, 3-(butylamino)-4-phenoxy-5-[(4-phenyl-1-piperidyl)sulfonimidoyl]benzoic acid], the inhibition at 2 µM under setting [1] is 30 to 50%. For the same compound, the inhibition at 20 µM under setting [2] is no less than 75%.

`CCCCNc1cc(C(=O)O)cc(S(=N)(=O)NCCc2cccnc2)c1Oc1ccccc1` (stereo not shown) [Compound 84, 3-(butylamino)-4-phenoxy-5-[[2-(3-pyridyl)ethylamino]sulfonimidoyl]benzoic acid]: the inhibition at 2 µM under setting [1] was 10 to 30%. Besides, the inhibition at 20 µM under setting [2] is no less than 75%.

Turning to `CCCCNc1cc(C(=O)OC)cc(S(=N)(=O)NC2CCOCC2)c1Oc1ccccc1` (stereo not shown) [Compound 29, methyl 3-(butylamino)-4-phenoxy-5-[(tetrahydropyran-4-ylamino)sulfonimidoyl]benzoate], under setting [2], the inhibition at 20 µM was in the range of 10 to 30%.

Consider `CCCCNc1cc(C(=O)OC)cc(S(=N)(=O)NCCc2cccnc2)c1Oc1ccccc1` (stereo not shown) [Compound 37, methyl 3-(butylamino)-4-phenoxy-5-[[2-(3-pyridyl)ethylamino]sulfonimidoyl]benzoate], for which, under setting [2], the inhibition at 20 µM fell in the range of 10 to 30%.

Turning to `CCCCNc1cc(C(=O)OC)cc(S(=N)(=O)N2Cc3ccccc3C2)c1Oc1ccccc1` (stereo not shown) [Compound 24, methyl 3-(butylamino)-5-(isoindolin-2-ylsulfonimidoyl)-4-phenoxy-benzoate], the inhibition at 2 µM under setting [1] was 10 to 30%. In addition, the inhibition at 20 µM under setting [2] is 30 to 50%.

In the case of `NS(=O)(=O)c1cc(C(=O)O)c(NCc2ccco2)cc1Cl` [Ref 2, furosemide, reference compound], the inhibition at 2 µM (native HEK293, read-out: Percent inhibition of drugs on NKCC1, 2 uM) is 32%. Moreover, the inhibition at 20 µM (native HEK293, read-out: Percent inhibition of drugs on NKCC1, 20 uM) came to 77%.

With `CCCCNc1cc(C(=O)OC)cc(S(=N)(=O)NCCOC)c1Oc1ccccc1` (stereo not shown) [Compound 9, methyl 3-(butylamino)-5-[(2-methoxyethylamino)sulfonimidoyl]-4-phenoxy-benzoate], under setting [2], the inhibition at 20 µM is 10 to 30%.

Consider `CCCCNc1cc(C(=O)OC)cc(S(=N)(=O)NCc2nccs2)c1Oc1ccccc1` (stereo not shown) [Compound 38, methyl 3-(butylamino)-4-phenoxy-5-[(thiazol-2-ylmethylamino)sulfonimidoyl]benzoate], for which, under setting [2], the inhibition at 20 µM fell in the range of 10 to 30%.

As for `CCCCNc1cc(C(=O)OC)cc(S(=N)(=O)N(C)CC)c1Oc1ccccc1` (stereo not shown) [Compound 5, methyl 3-(butylamino)-5-[[ethyl(methyl)amino]sulfonimidoyl]-4-phenoxy-benzoate], the inhibition at 20 µM under setting [2] lay within 50 to 75%.

For `CCCCNc1cc(C(=O)OC)cc(S(=N)(=O)NC2CCN(C)CC2)c1Oc1ccccc1` (stereo not shown) [Compound 30, methyl 3-(butylamino)-5-[[(1-methyl-4-piperidyl)amino]sulfonimidoyl]-4-phenoxy-benzoate], the inhibition at 20 µM under setting [2] lay in the range of 30 to 50%.

Turning to `CCCCNc1cc(C(=O)OC)cc(S(=O)(=O)Nc2ccccc2)c1Oc1ccccc1` [Compound 124, methyl 3-(butylamino)-4-phenoxy-5-(phenylsulfamoyl)benzoate], the inhibition at 2 µM under setting [1] lay in the range of 30 to 50%. Also, the inhibition at 20 µM under setting [2] lay in the range of 30 to 50%.

Turning to `CCCCNc1cc(C(=O)O)cc(S(=N)(=O)NC23CC(C2)C3)c1Oc1ccccc1` (stereo not shown) [Compound 95, 3-[(1-bicyclo[1.1.1]pentanylamino)sulfonimidoyl]-5-(butylamino)-4-phenoxy-benzoic acid], the inhibition at 2 µM under setting [1] was 30 to 50%. Besides, the inhibition at 20 µM under setting [2] is 30 to 50%.

`CCCCNc1cc(C(=O)O)cc(S(=N)(=O)Nc2cccnc2)c1Oc1ccccc1` (stereo not shown) [Compound 64, 3-(butylamino)-4-phenoxy-5-[(3-pyridylamino)sulfonimidoyl]benzoic acid]: the inhibition at 2 µM under setting [1] was in the range of 50 to 75%. Under setting [2], the inhibition at 20 µM was no less than 75%.

With `CCCCNc1cc(C(=O)O)cc(S(=N)(=O)NCc2ccccc2)c1Oc1ccccc1` (stereo not shown) [Compound 58, 3-[(benzylamino)sulfonimidoyl]-5-(butylamino)-4-phenoxy-benzoic acid], the inhibition at 2 µM under setting [1] fell in the range of 30 to 50%. In addition, under setting [2], the inhibition at 20 µM is no less than 75%.
